Source: patent publication US10493046B2, “5-hydroxytryptamine 1B receptor-stimulating agent for use as a promoter of satellite cells self-renewal and/or differentiation” (INSTITUT PASTEUR, priority 2015, dated 2019)

Legend:
[1] = test system: satellite cells; test: Satellite cell (SC) number in tibialis anterior of treated mice (histological count or FACS cytometry); type: in vivo, mouse; conditions: GR127935 in osmotic pump together with vortioxetine I.P 12 days; Tg:Pax7nGFP mice
Method: For satellite cell counting, only the tibialis anterior muscle was dissected and digested as described earlier, and the totality of the tube was analysed to assess the number of satellite cells per muscle. FACS analysis was done using a FACSasia (Beckman). All analyses and quantitation were performed using Summit v4.3 software from DakoCytomation and FloJo software. […]
In order to count the number of satellite cells, the tibialis anterior (TA) of Tg:Pax7nGFP mice were digested and analysed by FACS in placebo and vortioxetine (12 days, 20 mg/Kg) treated mice. […] After 3 weeks of vortioxetine treatment, the number of satellite cells was even higher (9351 satellite cells±706, p=0.0079) but no statistically significant differences were found between 12 days and 3 weeks of treatment (p=0.15).

[2] = test system: satellite cells; test: FACS-sorted satellite cells in vitro, compound added to the culture medium; type: cell-based, mouse
Method: Muscle dissection was done as previously described in cold DMEM. Muscles were then chopped with small scissors and put in a 50 ml Falcon tube with collagenase 0.1% and trypsin 0.25% at 37° C. with gentle agitation. After 20 minutes, the supernatant was collected in 20% serum placed on ice, and the collagenase/trypsin solution was added to continue the digestion. Once muscle was completely digested, the solution was filtrated using 40 μm cell strainers. Satellite cells were cultured in 1:1 DMEM-Glutamax (Gibco#41965-039):MCDB201 (Sigma#M6770) containing 20% serum FBS (Biowest S1860). Medium was filtered using 0.22 μm filters. Cells were plated on Matrigel coating (BD Biosciences#354234) and kept in an incubator (37° C., 5% CO2). […] The thus-obtained supernatant replaced FBS in the culture medium; the rest of the medium was unchanged.
Satellite cells were isolated from Tg:Pax7nGFP mice and cells were plated at 2.000 cells per cm^2. After overnight, vortioxetine was added at 10 μM. […] 14 days post-plating, a higher number of reserve cells (Pax7 positive cells that are quiescent in vitro) were detected in the vortioxetine-treated cells (9%±0.7) than in the PBS (3.5%±0.9, p=0.01), and when GR127935 inhibitor was added in vitro the number of reserve cells dropped (3.5%±0.9, p=0.9) (FIG. 11c). […] This difference in expression was lost when SC were plated with the GR127935 5-HT1 BR inhibitor (p=0.4) (FIGS. 11c-e). The positive effects of vortioxetine were lost when GR127935 was added in vitro together with vortioxetine (FIGS. 11c-e). These effects were however persistent when adding the 5-HT2 BR antagonist (FIGS. 11c-e). This means that the positive effects observed when plating vortioxetine in vitro with satellite cells is mediated via the 5HT1B receptor and not 5HT2B.
To test whether, 2 derivatives of vortioxetine, namely histidine-vortioxetine and pyrrolidinium-vortioxetine, could have similar or improved effect compared to the unmodified vortioxetine, the in vitro approach as described in section 2.2.3 above was used and the differentiation cascade of satellite cells was investigated by assessing the expression pattern of Pax7 (a marker of stemness and quiescence) and Myogenin (MyoG, a marker of differentiation) as described above in section 2.2.3. To do so, satellite cells from Tg:Pax7-nGFP were isolated by FACS and plated at 2.000 cells per cm^2 (seeded overnight). The following day, the vortioxetine, its derivatives, or the control PBS was added at 10 μM and the cells were fixed at the indicated time points.

[3] = test system: cytokines; test: Plasmatic cytokine levels by Luminex after notexin injury; type: in vivo, mouse; conditions: injured with fluoxetine treatment
From the text: Snap frozen plasma samples (n=6 per condition) were thawed out, and supernatant was processed for Luminex® multiple cytokine and chemokine analysis (Bio-Plex® Pro™ Mouse Cytokine Standard 23-Plex, Group I and Standard 9-Plex, Group II). Normalization was done by sample weight of frozen muscle.

[4] = test system: CD31 expressing cells; test: Ex vivo Matrigel angiogenesis assay (subcutaneous plugs); type: in vivo, mouse; conditions: C57Bl/6 treated P.O for 6 weeks
From the text: To further confirm the above results, an ex vivo Matrigel angiogenesis assay was used. To do so, a cold Matrigel was introduced subcutaneously, which solidifies and allows the penetration by host cells and the formation of new blood vessels in C57Bl/6 treated P.O for 6 weeks.

[5] = test system: satellite cells; test: BrdU cell division of satellite cells during treatment; type: in vivo, mouse; conditions: BrdU during the entire per os treatment
From the text: (a) Schematic representation of fluoxetine delivery and sacrifice time points. (b) Number of satellite cells per mm^2 on section. […] The arrows point to the satellite cells. […] (k-l) Representative image of a vessel (arrows) in the Matrigel plug detected by HE staining in placebo (k) or fluoxetine (l) treated mice. (m) Vessel length 4 days post-plating of Cytodex® beads covered with HUVEC. (n) Representative image of a Cytodex® bead 4 days-post plating in presence of placebo plasma. […] Using immunostainings and FACS cell sorting in Figures (p) to (v): (p) Number of Pax7GFP expressing cells per digested TA (expressed as an absolute number) counted by FACS. (q) Representative FACS profile of digested TA of TgPax7nGFP mouse. […] TA muscle was digested and cells were isolated by FACS, spined on a slide and immuno-stained against BrdU. (s) Percentage of BrdU+ cells in Tg:Pax7nGFP mice (n=3 per time point). […] Data are represented as mean±s.d. *P<0.05; **P<0.01; ***P<0.001. Scale bar represents 100 μm. For Figures (p) to (v): n=7 mice used per condition, except for BrdU experiments n=3 per time point. Data are represented as mean±s.d. **P<0.01. Scale bar represents 100 μm.

Compound | Number of SC [1] [SC per TA] | Positive effects of vortioxetine (incl. MyoG expression difference) when GR127935 added ([2]; GR127935 added in vitro together with vortioxetine 10 μM) | Pax7 positive cells 4 days post-plating ([2]; vortioxetine 10 μM incubated with the GR127935 inhibitor) [%] | Reserve cells (quiescent Pax7 positive cells) 14 days post-plating ([2]; vortioxetine 10 μM, GR127935 inhibitor added in vitro) [%] | IL-6 level after injury [3] [pg/µL] | Number of CD31 expressing cells in Matrigel plugs [4] [CD31+ cells per mm^2] | SC population dividing (BrdU) [5] [%]
COc1ccc(NC(=O)c2ccc(-c3ccc(-c4noc(C)n4)cc3C)cc2)cc1N1CCN(C)CC1 [GR127935] | 5540±411 | lost | 25.5 | 3.5 |  |  | 
CNCCC(Oc1ccc(C(F)(F)F)cc1)c1ccccc1 (stereo not shown) [fluoxetine] |  |  |  |  | 2459 ± 920 | 72.9±22.6 | 90
